Results as given in publication PMC3856494, “Radiofluorination and biological evaluation of N-aryl-oxadiazolyl-propionamides as potential radioligands for PET imaging of cannabinoid CB2 receptors” (Organic and Medicinal Chemistry Letters, 2013).
Where two headings read alike, the source gives them in different places.

Key:
[1] = Ex vivo biodistribution (organ distribution) in mice; conditions: i.v. 300 to 400 kBq, female CD1 mice
Experimental: (§1) Female CD1 mice (10 to 12 weeks old, 20 to 25 g) received an injection of 300 to 400 kBq of [^18F]1 or [^18F]2 with specific activities of >450 GBq/μmol in 200 μL of 0.9% NaCl/10% EtOH into the tail vein. The animals were anesthetized (CO2/O2 mixture) for blood and urine sampling and euthanized by luxation of the cervical spine at 5, 30, and 60 min after injection (p.i.) (n = 2 to 5 per time). The organs of interest were removed and weighed, and the activities were measured by γ counting using a calibrated γ counter Wallac Wizard 1470 (Perkin Elmer Inc., Waltham, MA, USA). The percentage of injected dose per gram of wet tissue (% ID/g wet weight) was calculated.

CB2R = CB2R (Mus musculus, UniProt P47936); parameters: species or system female CD1 mice; conditions: female, CD1, mouse, in vivo
Experimental: as §1
(3 mg/kg i.p. in 0.9% saline, 10 min before the injection of the radiotracer) at 60 min p.i. (n = 2 to 5). The unpaired two-tailed t test was used to compare the results between the groups. We considered differences to be significant at a p value <0.05.

[2] = In vitro radiochemical stability; assay type: physicochemical; conditions: 40°C, after 30 min of incubation
Experimental: In vitro radiochemical stabilities of [^18F]1 and [^18F]2 were investigated in 0.9% NaCl solution, Dulbecco’s phosphate buffer, 0.01 M Tris–HCl (pH 7.4 at 21°C), and EtOH at 40°C for 90 min. Samples were taken at 15, 30, 60, and 90 min after incubation and analyzed by radio-TLC and radio-HPLC.

[3] = Ex vivo metabolite studies (radio-HPLC of plasma and brain extracts); assay type: in vivo, CD1 mice; conditions: mice
Experimental: [^18F]1 and [^18F]2 (100 to 150 MBq, 250 to 450 GBq/μmol in 150 μL NaCl 0.9%/10% EtOH) were injected via the tail vein in CD1 male mice (10 to 12 weeks old, 20 to 25 g). Blood and urine samples were obtained at 30 and 60 min p.i. (n = 3 per time point). Twofold extractions of plasma and brain samples (n = 3) were performed using ice-cold MeCN according to the standard protocol established in our group (see [47, 48]). Briefly, plasma samples were obtained by centrifugation of the blood at 4,000×g at 4°C for 10 min, and brain samples were homogenized in ice-cold 50 mM Tris–HCl (pH = 7.4). The samples were vortexed, incubated on ice, and centrifuged at 10,000×g for 3 min. Supernatants were collected, and the precipitates were re-dissolved in ice-cold MeCN for the second extraction. The supernatants from the two extractions were combined, concentrated under a gentle argon stream at 65°C, and analyzed by radio-TLC and gradient analytical HPLC (see ‘Radiochemistry’ section). Aliquots from each extraction supernatant and the precipitates were also taken and quantified by γ counting (Wallac Wizard 1470, Perkin Elmer Inc., Waltham, MA, USA) along with the respective aliquots of intact plasma samples and brain homogenates. A moderate recovery of radioactivity was obtained from plasma samples and brain homogenates (60% to 70%). Radiometabolites of [^18F]17 in the plasma, spleen, and brain were assessed at 30 and 60 min p.i.

human CB1R = human CB1R (Homo sapiens, UniProt P21554); test: In vitro CB receptor affinity assay, displacement of [3H]CP55,940, CHO cells transfected with human CB1R; assay type: binding
Experimental: (§2) For binding experiments, Chinese hamster ovary (CHO) cell lines stably transfected with human CB1R human and CB2R were used according to the procedures previously described. […] The binding experiments were performed in triplicates, and data were given as mean values from independent experiments.

human CB2R = human CB2R (Homo sapiens, UniProt P34972); test: In vitro CB receptor affinity assay, displacement of [3H]CP55,940, CHO cells transfected with human CB2R; assay type: binding
Experimental: as §2

[4] = HPLC-based logD determination; assay type: physicochemical; conditions: RP-HPLC, reference compounds
Experimental: The distribution coefficients of [^18F]1 and [^18F]2 were also calculated from RP-HPLC retention times in three different systems: (1) isocratic elution (60% MeCN/20 mM NH4OAc at a flow rate of 1 mL/min) and (2) gradient elution (starting from 10% MeCN/20 mM NH4OAc aq. for 10 min with a gradient to 90% MeCN/20 mM NH4OAc aq. over 30 min at a flow rate of 1 mL/min) on a Reprosil-Pur C18-AQ column (5 μm, 250 × 4.6 mm, Dr. Maisch HPLC GmbH, Ammerbruch-Entringen, Germany), and (3) isocratic elution (52.5% MeCN/20 mM NH4OAc at a flow rate of 1 mL/min) on a Prodigy 5 μm C8 (250 × 4 mm; Phenomenex Ltd, Aschaffenburg, Germany) using the reference compounds following the protocol according to the EU guideline 67/548/EWG [44].

Sequence of CB2R (P47936 whole entry): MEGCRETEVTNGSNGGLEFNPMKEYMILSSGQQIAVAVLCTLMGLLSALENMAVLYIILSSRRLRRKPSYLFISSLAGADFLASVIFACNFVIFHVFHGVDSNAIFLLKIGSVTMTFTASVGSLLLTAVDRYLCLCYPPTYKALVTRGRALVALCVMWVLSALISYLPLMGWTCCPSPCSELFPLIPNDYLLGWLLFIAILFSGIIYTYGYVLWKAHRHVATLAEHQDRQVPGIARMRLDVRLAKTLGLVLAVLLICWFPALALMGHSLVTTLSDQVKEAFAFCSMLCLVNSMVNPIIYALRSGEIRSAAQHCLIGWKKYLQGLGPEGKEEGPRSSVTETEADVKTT
Sequence of human CB2R (P34972 whole entry): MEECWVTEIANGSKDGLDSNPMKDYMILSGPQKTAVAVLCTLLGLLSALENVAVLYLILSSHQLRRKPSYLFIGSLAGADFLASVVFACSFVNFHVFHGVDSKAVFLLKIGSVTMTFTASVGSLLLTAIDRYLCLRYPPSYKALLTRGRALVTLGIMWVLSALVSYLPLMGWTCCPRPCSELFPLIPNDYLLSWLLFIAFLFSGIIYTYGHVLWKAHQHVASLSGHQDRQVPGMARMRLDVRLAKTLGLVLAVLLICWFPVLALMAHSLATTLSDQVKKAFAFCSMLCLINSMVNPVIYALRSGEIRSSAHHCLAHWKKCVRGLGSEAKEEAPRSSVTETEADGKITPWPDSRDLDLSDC
Sequence of human CB1R (P21554 whole entry): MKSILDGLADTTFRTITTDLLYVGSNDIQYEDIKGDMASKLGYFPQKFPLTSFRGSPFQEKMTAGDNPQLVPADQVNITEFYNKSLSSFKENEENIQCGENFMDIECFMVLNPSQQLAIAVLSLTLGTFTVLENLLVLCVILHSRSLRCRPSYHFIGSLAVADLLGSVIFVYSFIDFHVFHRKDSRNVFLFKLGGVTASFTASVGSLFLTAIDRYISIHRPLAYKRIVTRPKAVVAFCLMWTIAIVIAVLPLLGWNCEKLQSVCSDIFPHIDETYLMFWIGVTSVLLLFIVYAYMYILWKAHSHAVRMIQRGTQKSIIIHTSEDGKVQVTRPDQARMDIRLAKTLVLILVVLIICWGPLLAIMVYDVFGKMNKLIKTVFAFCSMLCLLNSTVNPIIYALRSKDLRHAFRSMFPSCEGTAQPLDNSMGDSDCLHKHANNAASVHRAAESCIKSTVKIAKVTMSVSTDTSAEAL

O=C(CCc1nc(-c2ccc(F)cc2Br)no1)Nc1ccc2c(c1)c1ccccc1n2CC[18F] [[^18F]1]
Radioactivity uptake, Adrenals, Control 5 min [1]: 4.16 ± 6.23 % ID/g
Radioactivity uptake, Adrenals, Control 30 min [1]: 3.31 ± 0.99 % ID/g
Radioactivity uptake, Adrenals, Control 60 min [1]: 3.16 ± 1.25 % ID/g
Radioactivity uptake, Bladder, Control 5 min [1]: 2.23 ± 1.39 % ID/g
Radioactivity uptake, Bladder, Control 30 min [1]: 1.65 ± 0.43 % ID/g
Radioactivity uptake, Bladder, Control 60 min [1]: 3.27 ± 1.94 % ID/g
Radioactivity uptake, Blood, Control 5 min [1]: 1.94 ± 0.44 % ID/g
Radioactivity uptake, Blood, Control 30 min [1]: 1.44 ± 0.41 % ID/g
Radioactivity uptake, Blood, Control 60 min [1]: 1.94 ± 0.69 % ID/g
Radioactivity uptake, Brain, Control 5 min [1]: 1.31 ± 0.24 % ID/g
Radioactivity uptake, Brain, Control 30 min [1]: 0.76 ± 0.22 % ID/g
Radioactivity uptake, Brain, Control 60 min [1]: 0.92 ± 0.27 % ID/g
Radioactivity uptake, Femur, Control 5 min [1]: 2.00 ± 0.38 % ID/g
Radioactivity uptake, Femur, Control 30 min [1]: 1.37 ± 0.50 % ID/g
Radioactivity uptake, Femur, Control 60 min [1]: 1.84 ± 0.35 % ID/g
Radioactivity uptake, Gonads, Control 5 min [1]: 1.06 ± 0.94 % ID/g
Radioactivity uptake, Gonads, Control 30 min [1]: 1.02 ± 0.26 % ID/g
Radioactivity uptake, Gonads, Control 60 min [1]: 1.33 ± 0.50 % ID/g
Radioactivity uptake, Heart, Control 5 min [1]: 3.39 ± 0.45 % ID/g
Radioactivity uptake, Heart, Control 30 min [1]: 1.43 ± 0.47 % ID/g
Radioactivity uptake, Heart, Control 60 min [1]: 1.66 ± 0.37 % ID/g
Radioactivity uptake, Kidney, Control 5 min [1]: 13.40 ± 5.66 % ID/g
Radioactivity uptake, Kidney, Control 30 min [1]: 2.68 ± 0.37 % ID/g
Radioactivity uptake, Kidney, Control 60 min [1]: 1.65 ± 0.49 % ID/g
Radioactivity uptake, Large intestine, Control 5 min [1]: 1.91 ± 2.66 % ID/g
Radioactivity uptake, Large intestine, Control 30 min [1]: 3.24 ± 5.61 % ID/g
Radioactivity uptake, Large intestine, Control 60 min [1]: 1.54 ± 0.42 % ID/g
Radioactivity uptake, Liver, Control 5 min [1]: 11.00 ± 1.04 % ID/g
Radioactivity uptake, Liver, Control 30 min [1]: 4.38 ± 1.19 % ID/g
Radioactivity uptake, Liver, Control 60 min [1]: 5.29 ± 1.22 % ID/g
Radioactivity uptake, Lung, Control 5 min [1]: 3.68 ± 0.62 % ID/g
Radioactivity uptake, Lung, Control 30 min [1]: 1.65 ± 0.70 % ID/g
Radioactivity uptake, Lung, Control 60 min [1]: 1.77 ± 0.74 % ID/g
Radioactivity uptake, Muscle, Control 5 min [1]: 2.10 ± 0.33 % ID/g
Radioactivity uptake, Muscle, Control 30 min [1]: 1.02 ± 0.50 % ID/g
Radioactivity uptake, Muscle, Control 60 min [1]: 0.89 ± 0.19 % ID/g
Radioactivity uptake, Pancreas, Control 5 min [1]: 4.97 ± 0.62 % ID/g
Radioactivity uptake, Pancreas, Control 30 min [1]: 1.50 ± 0.74 % ID/g
Radioactivity uptake, Pancreas, Control 60 min [1]: 1.13 ± 0.11 % ID/g
Radioactivity uptake, Plasma, Control 5 min [1]: 2.52 ± 0.58 % ID/g
Radioactivity uptake, Plasma, Control 30 min [1]: 1.88 ± 0.58 % ID/g
Radioactivity uptake, Plasma, Control 60 min [1]: 2.50 ± 0.87 % ID/g
Radioactivity uptake, Small intestine, Control 5 min [1]: 4.36 ± 2.09 % ID/g
Radioactivity uptake, Small intestine, Control 30 min [1]: 10.51 ± 8.38 % ID/g
Radioactivity uptake, Small intestine, Control 60 min [1]: 22.03 ± 8.32 % ID/g
Radioactivity uptake, Spleen, Control 5 min [1]: 3.44 ± 0.77 % ID/g
Radioactivity uptake, Spleen, Control 30 min [1]: 1.46 ± 0.56 % ID/g
Radioactivity uptake, Spleen, Control 60 min [1]: 1.52 ± 0.62 % ID/g
Radioactivity uptake, Stomach, Control 5 min [1]: 2.05 ± 0.33 % ID/g
Radioactivity uptake, Stomach, Control 30 min [1]: 1.23 ± 0.36 % ID/g
Radioactivity uptake, Stomach, Control 60 min [1]: 2.70 ± 1.47 % ID/g
Radioactivity uptake, Thymus, Control 5 min [1]: 3.30 ± 0.58 % ID/g
Radioactivity uptake, Thymus, Control 30 min [1]: 1.57 ± 0.80 % ID/g
Radioactivity uptake, Thymus, Control 60 min [1]: 1.90 ± 0.98 % ID/g
Radioactivity uptake, Adrenals, Blocking 60 min (CB2R; 3 mg/kg, 1 h): 3.00 ± 0.64 % ID/g
Radioactivity uptake, Bladder, Blocking 60 min (CB2R; 3 mg/kg, 1 h): 5.07 ± 3.84 % ID/g
Radioactivity uptake, Blood, Blocking 60 min (CB2R; 3 mg/kg, 1 h): 1.43 ± 0.34 % ID/g
Radioactivity uptake, Brain, Blocking 60 min (CB2R; 3 mg/kg, 1 h): 0.66 ± 0.11 % ID/g
Radioactivity uptake, Femur, Blocking 60 min (CB2R; 3 mg/kg, 1 h): 1.49 ± 0.45 % ID/g
Radioactivity uptake, Gonads, Blocking 60 min (CB2R; 3 mg/kg, 1 h): 1.19 ± 0.30 % ID/g
Radioactivity uptake, Heart, Blocking 60 min (CB2R; 3 mg/kg, 1 h): 1.49 ± 0.29 % ID/g
Radioactivity uptake, Kidney, Blocking 60 min (CB2R; 3 mg/kg, 1 h): 1.74 ± 0.48 % ID/g
Radioactivity uptake, Large intestine, Blocking 60 min (CB2R; 3 mg/kg, 1 h): 1.63 ± 0.64 % ID/g
Radioactivity uptake, Liver, Blocking 60 min (CB2R; 3 mg/kg, 1 h): 4.22 ± 0.96 % ID/g
Radioactivity uptake, Lung, Blocking 60 min (CB2R; 3 mg/kg, 1 h): 1.47 ± 0.29 % ID/g
Radioactivity uptake, Muscle, Blocking 60 min (CB2R; 3 mg/kg, 1 h): 0.93 ± 0.23 % ID/g
Radioactivity uptake, Pancreas, Blocking 60 min (CB2R; 3 mg/kg, 1 h): 1.03 ± 0.26 % ID/g
Radioactivity uptake, Plasma, Blocking 60 min (CB2R; 3 mg/kg, 1 h): 1.87 ± 0.41 % ID/g
Radioactivity uptake, Small intestine, Blocking 60 min (CB2R; 3 mg/kg, 1 h): 19.39 ± 5.53 % ID/g
Radioactivity uptake, Spleen, Blocking 60 min (CB2R; 3 mg/kg, 1 h): 0.98 ± 0.21 % ID/g
Radioactivity uptake, Stomach, Blocking 60 min (CB2R; 3 mg/kg, 1 h): 1.84 ± 1.28 % ID/g
Radioactivity uptake, Thymus, Blocking 60 min (CB2R; 3 mg/kg, 1 h): 1.50 ± 0.35 % ID/g
% control, Adrenals (CB2R; 60 min): 95 % control
% control, Bladder (CB2R; 60 min): 155 % control
% control, Blood (CB2R; 60 min): 74 % control
% control, Brain (CB2R; 60 min): 72 % control
% control, Femur (CB2R; 60 min): 81 % control
% control, Gonads (CB2R; 60 min): 89 % control
% control, Heart (CB2R; 60 min): 90 % control
% control, Kidney (CB2R; 60 min): 106 % control
% control, L. intestine (CB2R; 60 min): 106 % control
% control, Liver (CB2R; 60 min): 80 % control
% control, Lung (CB2R; 60 min): 83 % control
% control, Muscle (CB2R; 60 min): 104 % control
% control, Pancreas (CB2R; 60 min): 91 % control
% control, Plasma (CB2R; 60 min): 75 % control
% control, S. intestine (CB2R; 60 min): 88 % control
% control, Spleen (CB2R; 60 min): 65 % control
% control, Stomach (CB2R; 60 min): 68 % control
% control, Thymus (CB2R; 60 min): 79 % control
intact tracer ([2]; 0.9% NaCl): 95%
intact tracer ([2]; Dulbecco’s phosphate buffer): 94%
intact tracer ([2]; EtOH): 93%
intact tracer ([2]; Tris–HCl): 89%
Percentage of total activity in brain samples, 30 min p.i. ([3]; brain homogenate extract, 30 min p.i. of [18F]1 or [18F]2, radio-HPLC): 68%
Percentage of total activity in brain samples, 60 min p.i. ([3]; brain homogenate extract, 60 min p.i. of [18F]1 or [18F]2, radio-HPLC): 35%
Relative percentage of intact tracer and radiometabolites, Plasma 30 min p.i. ([3]; plasma, 30 min p.i. of [18F]1 or [18F]2, radio-HPLC): 60%
Relative percentage of intact tracer and radiometabolites, Plasma 60 min p.i. ([3]; plasma, 60 min p.i. of [18F]1 or [18F]2, radio-HPLC): 7%

O=C(CCc1nc(-c2ccc(F)cc2Br)no1)Nc1ccc2c(c1)c1ccccc1n2CCF [Compound 1, 3-[3-(2-Bromo-4-fluorophenyl)-1,2,4-oxadiazol-5-yl]-N-[9-(2-fluoroethyl)-9H-carbazol-3-yl]propanamide]
Ki (human CB1R): > 1000 nM
Ki (human CB2R): 2.32 ± 2.12 nM
chromatographic logD ([4]; Prodigy 5 μm C8 column, isocratic 52.5% MeCN/20 mM NH4OAc, n = 3 to 6, read-out: logD Prodigy 5 μ C8 Isocratic): 3.86 ± 0.33
chromatographic logD ([4]; Reprosil-Pur C18-AQ column, gradient 10% to 90% MeCN/20 mM NH4OAc, n = 3 to 6, read-out: logD Reposil-Pur C18-AQ Gradient): 3.82 ± 0.1
chromatographic logD ([4]; Reprosil-Pur C18-AQ column, isocratic 60% MeCN/20 mM NH4OAc, n = 3 to 6, read-out: logD Reposil-Pur C18-AQ Isocratic): 4.21 ± 0.32
